The subject of data set [1] is SK-N-SH cells. The data set can be described thus: Intracellular ROS measurement (DCFH, flow cytometry and CLSM). As to conditions: 15 μM R3, 3.8 μM Cu2+, 10 μM compound; for ROS in SK-N-SH cells generated by R3–Cu2+ complex (flow cytometry): 24 h. Type of data set: cell-based, human. Here is the method:
The flow cytometry and confocal laser scanning microscopy (CLSM) were used to show the intracellular ROS production. […] Consequently, the reductive phenolic hydroxyl groups might be a key factor for scavenging ROS triggered by R3–Cu^2+ complex.
SK-N-SH cells were seeded on a 12-well plate at a density of 1 × 10^5/well and incubated at 37 °C for 24 h, followed by treating with 15 μM R3 in the presence or the absence of 3.8 μM Cu^2+ in FBS-free DMEM. Two hours later, 10 μM 4GA/2GA/4ME/GA was added to the medium, respectively. After 24 h, the culture medium was removed, and 10 μM DCFH diacetate in FBS-free DMEM was added and incubated for 45 min at 37 °C. Samples were washed three times with PBS, and 4% polyformaldehyde was added and fixed at room temperature for 20 min. Cells were observed under a CLSM. For quantitative analysis, cells were harvested and washed three times with ice-cold PBS and resuspended in PBS. The fluorescence intensity of DCFH was analyzed by flow cytometry (CytoFLEX LX).

Data set [2] deals with T1, tau peptide R3 (Homo sapiens, UniProt P10636).
T1 construct: R3 (^306VQIVYK PVDLSK VTSKCG SLGNIH HKPGGG Q^336) and rabbit anti-tau antibody were purchased from MuJin; purchased MuJin
T1 sequence (P10636 623-653 limits assumed): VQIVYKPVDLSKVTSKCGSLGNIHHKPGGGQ
The data set can be described thus: Endogenous (tyrosine) fluorescence quenching of tau peptide R3. The class given is binding. As to conditions: for n (binding sites): Hill equation. The method, then:
The affinity of the synthetic compounds toward tau peptide was evaluated by endogenous fluorescence quenching experiment. The N-galloyl-substituted azacrown (ligand) can quench the endogenous fluorescence of tyrosine residues (306–310, VQIVY) on R3 peptide chain (receptor), if there exists a definite interaction between the ligand and the receptor. With titration of 4GA or 2GA (ligands) into the solution of tau peptide R3 (receptors), the endogenous fluorescence (at 310 nm) of tyrosine residues on R3 peptide chain was gradually quenched (data provided in ESI, Fig. S11). The data were then fitted by the Stern−Volmer formula to give the quenching constants (Kb) (Fig. S12). The quenching constants (Kb) and binding sites (n) of 4GA or 2GA to R3 peptide in the temperatures 25 °C and 37 °C are presented in Table 1.
The structural changes of R3 protein upon binding to 4GA/2GA/GA was documented by fluorescence spectroscopy. Briefly, various concentrations of 4GA/2GA/GA (0, 5, 10, 15, 20, 30, 40, 60, or 80 μM) were added to the 15 μM R3 protein in 50 mM Tris–HCl buffer (pH 7.4) in a 10-mm quartz cuvette. The measurement was carried out by Hitachi F-7000 equipped with a circulating water bath at 25 and 37 °C. The fluorescence spectra of R3 protein were documented from 290 nm to 380 nm with 275 nm excitation. The widths of excitation and emission slit were set at 5 and 10 nm, respectively.
The Stern–Volmer (Formula 4.1) was used to determine the quenching mechanism, either static or dynamic quenching:(4.1) F0/F=1+KSV[Q] where F0 and F are the fluorescence intensity without and with quencher, [Q] means the concentration of quencher, and Ksv is the Stern–Volmer constant.
Furthermore, the binding constant (Kb) and number of the binding sites (n) of quencher on R3 protein could be calculated by Hill (Equation 4.2):(4.2) log[F0−F/F]=logKb+nlog[Q]
The tyrosine fluorescence quenching experiment was carried out to determine the binding ability between inhibitors and R3 protein. […] Furthermore, this experiment is reasonable given the relatively weak fluorescence intensity of 4GA, 2GA, and GA (Figure S10). With titration of inhibitors into the solution of R3 protein, the fluorescence of tyrosine residues was gradually quenched in two temperatures of 25°C and 37°C, implying that 4GA or 2GA can interact with R3.
Fluorescence quenching usually proceeds through either dynamic quenching or static quenching. Dynamic quenching refers to the contact process between excited fluorophore and quencher, while static quenching refers to the formation of fluorophore-quencher complexes. A series of data processing about the fluorescence change of tyrosine residues at 25°C and 37°C was utilized to figure out the binding constant. Compared to the standard Stern-Volmer curves, a minor positive deviation from linearity was observed by plotting F0/F versus concentration, indicating a mixture of dynamic and static patterns (Figure S11). Furthermore, the Hill equation was used to calculate the quenching constant and binding sites of inhibitors on R3 protein (Figure S12).

Data set [3] has as its target T2, R3 fibrils (Homo sapiens, UniProt P10636).
T2 construct: R3 (^306VQIVYK PVDLSK VTSKCG SLGNIH HKPGGG Q^336) and rabbit anti-tau antibody were purchased from MuJin; purchased MuJin
Briefly: TEM of heparin-induced R3 fibrils. Type of data set: biochemical. The method, then: To further confirm the inhibitory efficiency of 4GA and 2GA on R3 fibril formation, the morphology of heparin-induced R3 aggregates at different conditions was characterized by transmission electron microscopy (TEM) (Fig. 4C). After incubation, the mature fibrils of R3 were interweaved and serried in the absence of 4GA or 2GA (0 μM).
For detecting the inhibitory efficiency of inhibitors, 15 μM R3, 3.8 μM heparin, and 4GA/2GA/4ME/GA (0, 10, and 40 μM) in 50 mM Tris–HCl buffer (pH 7.4) was incubated at 37 °C for 3 h, respectively. For exploring the effect of Cu^2+ on R3 aggregation, 15 μM R3, 3.8 μM heparin was mixed in the presence or the absence of 3.8 μM Cu^2+ in 50 mM Hepes buffer (pH 7.4). Then, 10 μM 4GA/2GA/4ME/GA was added to the solution. After 3 h incubation, 10 μl of each solution was applied on a carbon support membrane, followed by 10 μl of 2% uranyl acetate, and dried at room temperature. The operation was carried out on transmission electron microscope (JEM-2100, provieded by JEOL).

Data set [4] in a line: Solubility. Type of data set: physicochemical. Conditions: for solubility in polar organic solvent: DMSO. The source says: Therefore, in the following experiments, they were first dissolved in DMSO and further diluted in an excess of buffer. […] Logically, 1,4,7,10-tetramethyl-1,4,7,10-tetraazacyclododecane (4ME) and GA (compound structure was shown in Fig. S1) are considered as the precursor of 4GA and 2GA and therefore used as a comparative study to confirm whether the ancillary ligand had any effect on aggregation.

“Also recorded” adds a separate entry of the source.

T2 sequence (P10636 623-653 limits assumed): as above

On to `CN1CCN(C)CCN(C)CCN(C)CC1` [4ME, 1,4,7,10-tetramethyl-1,4,7,10-tetraazacyclododecane, reference compound], for which, in data set [1], the “ROS in SK-N-SH cells generated by R3–Cu2+ complex (flow cytometry)” value (“ROS in SK-N-SH cells generated” for short) is recorded as “did not decrease”.
With `O=C(O)c1cc(O)c(O)c(O)c1` [GA, gallic acid, reference compound], the “binding ability / interaction with R3” value in data set [2] (25 °C and 37 °C) is “no significant interaction between GA and R3; also recorded: negligible binding ability”. In data set [1], the “CLSM green fluorescence (intracellular ROS)” value (from here on “CLSM green fluorescence”) was “almost disappeared” and the “ROS in SK-N-SH cells generated” value is on record as “appreciably decreased, almost to the control level”. Moreover, in data set [3] (even at high concentrations), the “R3 fibril morphology (TEM)” value is “could hardly change the number and length of R3 fibrils”.
Consider `O=C(c1cc(O)c(O)c(O)c1)N1CCN(C(=O)c2cc(O)c(O)c(O)c2)CCN(C(=O)c2cc(O)c(O)c(O)c2)CCN(C(=O)c2cc(O)c(O)c(O)c2)CC1` [4GA, (1,4,7,10-tetraazacyclododecane-1,4,7,10-tetrayl)tetrakis((3,4,5-trihydroxyphenyl)methanone)], for which, in data set [4], the solubility in water result is given as “slightly soluble in water” and the “solubility in polar organic solvent” value is on record as “soluble in polar organic solvent such as dimethyl sulfoxide (DMSO)”. Also, the “n (binding sites)” value in data set [2] (25 °C) amounted to 1.33 ± 0.05. Further, in data set [2] (37 °C), the “n (binding sites)” value was found to be 1.54 ± 0.07. In data set [1], the “CLSM green fluorescence” value was “almost disappeared” and the “ROS in SK-N-SH cells generated” value is listed as “appreciably decreased, almost to the control level”. Also, the “R3 fibril morphology (TEM)” value in data set [3] (10 μM inhibitor) is reported as “smaller numbers of short R3 filaments”.
As to `CN1CCN(C(=O)c2cc(O)c(O)c(O)c2)CCN(C)CCN(C(=O)c2cc(O)c(O)c(O)c2)CC1` [2GA, (4,10-dimethyl-1,4,7,10-tetraazacyclododecane-1,7-diyl)bis((3,4,5-trihydroxyphenyl)methanone)], in data set [4], the solubility in water entry is given as “slightly soluble in water” and the “solubility in polar organic solvent” value was “soluble in polar organic solvent such as dimethyl sulfoxide (DMSO)”. In data set [2] (25 °C), the “n (binding sites)” value came out at 1.14 ± 0.05. In addition, the “n (binding sites)” value in data set [2] (37 °C) came out at 1.32 ± 0.04. Further, in data set [1], the “CLSM green fluorescence” value is “almost disappeared” and the “ROS in SK-N-SH cells generated” value was “appreciably decreased, almost to the control level”. For the same compound, the “R3 fibril morphology (TEM)” value in data set [3] (10 μM inhibitor) is reported as “smaller numbers of short R3 filaments”.

The record behind these values is article PMC12455130, “Multifunctional molecular agent for tau-targeted combinational therapy of Alzheimer’s disease” (The Journal of Biological Chemistry, 2025).
